Measurements taken from patent publication US9296759B2, “Amino-oxazine and amino-dihydrothiazine compounds as beta-secretase modulators and methods of use” (AMGEN INC., priority 2011, dated 2016).
Like-named read-outs stand apart in the source and are kept apart here.

Legend:
[1] = target: BACE 1 (beta secretase enzyme) (Homo sapiens (Human), UniProt P56817); experiment: In vitro enzymatic BACE FRET assay; format: biochemical; conditions: average IC50
Method in brief: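 The enzyme was tested in 0.05 M acetate, pH 4.2, with 10% DMSO final and 100 uM genapol. The reaction was started with 50 nM quenched FRET peptide substrate, incubated one hour and stopped with Tris to neutral pH. Cleavage was read as fluorescence ([…]).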

[2] = tested on: Aβ40 in conditioned medium of cells stably expressing Amyloid Precursor Protein (APP); experiment: In vitro BACE cell-based assay (HEK cell assay, Aβ40 sandwich ELISA); conditions: Homo sapiens, HEK293; average IC50, Aβ40, 24 h incubation
Method in brief: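 Secreted Aβ40 was quantified by sandwich ELISA (pAb40 capture, biotinylated 6E10 detection, Europium time-resolved fluorescence). IC50 derived from percent inhibition versus concentration.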

Abeta 40 = experiment: In vivo inhibition of beta-secretase: Abeta 40 reduction in CSF and brain of the rat; conditions: 10 mpk, after 4 hrs
Description: In Vivo Inhibition of Beta-Secretase
Several animal models, including mouse, rat, dog, and monkey, may be used to screen for inhibition of beta-secretase activity in vivo following administration of a test compound sample. Animals used in this invention can be wild type, transgenic, or gene knockout animals. For example, the Tg2576 mouse model, prepared and conducted as described in Hsiao et al., 1996, Science 274, 99-102, and other non-transgenic or gene knockout animals are useful to analyze in vivo inhibition of Amyloid beta peptide (Abeta) production in the presence of inhibitory test compounds. Generally, 2 to 18 month old Tg2576 mice, gene knockout mice or non-transgenic animals are administered test compounds formulated in vehicles, such as cyclodextran, phosphate buffers, hydroxypropyl methylcellulose or other suitable vehicles. One to twenty-four hours following the administration of compound, animals are sacrificed, and brains as well as cerebrospinal fluid (CSF) and plasma are removed for analysis of A-beta levels and drug or test compound concentrations (Dovey et al., 2001, Journal of Neurochemistry, 76, 173-181) Beginning at time 0, animals are administered by oral gavage, or other means of delivery such as intravenous injection, an inhibitory test compound of up to 100 mg/kg in a standard, conventional formulation, such as 2% hydroxypropyl methylcellulose, 1% Tween80. A separate group of animals receive 2% hydroxypropyl methylcellulose, 1% Tween80 alone, containing no test compound, and serve as a vehicle-control group. At the end of the test period, animals are sacrificed and brain tissues, plasma or cerebrospinal fluid are collected. Brains are either homogenized in 10 volumes (w/v) of 0.2% diethylamine (DEA) in 50 mM NaCl (Best et al., 2005, Journal of Pharmacology and Experimental Therapeutics, 313, 902-908), or in 10 volumes of 0.5% TritonX-100 in Tris-buffered saline (pH at about 7.6). Homogenates are centrifuged at 355,000 g, 4° C. for 30 minutes. CSF or brain supernatants are then analyzed for the presence of A-beta peptide by specific sandwich ELISA assays based on ECL (Electrochemiluminescence) technology. For example, rat Abeta40 is measured using biotinylated-4G8 (Signet) as a capture antibody and Fab40 (an in-house antibody specific to the C-terminal of Abeta40) as a detection antibody. For example, 4 hours after administration of 30 mg/kg oral dose of the test compound in 2% hydroxypropyl methylcellulose, 1% Tween80 (pH2.2) to 200 g male Sprague Dawley rats, amyloid beta peptide levels are measured for reduction by X % and Y % in cerebrospinal fluid and brain, respectively, when compared to the levels measured in the vehicle-treated rats.
• Oral: 2% HPMC, 1% Tween80, pH 2.2 • IV: 5% EtOH, 45% Propylene glycol in 5% Dextrose
The compounds of the invention may be shown to reduce the formation and/or deposition of amyloid beta peptide in the cerebrospinal fluid (CSF) as well as in the brain of a mouse or rat at either 3 mpk, 10 mpk or 30 mpk (mpk=mg compound per kg weight of the animal) dosing concentrations after 4 hrs.

Cathepsin D = Cathepsin D (Homo sapiens (Human), UniProt P07339); experiment: In vitro enzymatic Cat D (Cathepsin D) FRET assay; format: biochemical; conditions: average IC50
Method in brief: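 CHO-expressed recombinant enzyme in 0.05 M citrate pH 3.5, 5 mM CHAPS, 10% DMSO final; reaction started with 20 nM quenched-peptide FRET substrate (cleavage site spanned by fluorophore/quencher), 1 h incubation.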

[3] = Abeta 40, rat CSF, read-out: % reduction of rat CSF levels at 10 pmk
[4] = Abeta 40, rat brain, read-out: % reduction of rat brain levels at 10 mpk

Cathepsin D, sequence (P07339 65-412, species assumed): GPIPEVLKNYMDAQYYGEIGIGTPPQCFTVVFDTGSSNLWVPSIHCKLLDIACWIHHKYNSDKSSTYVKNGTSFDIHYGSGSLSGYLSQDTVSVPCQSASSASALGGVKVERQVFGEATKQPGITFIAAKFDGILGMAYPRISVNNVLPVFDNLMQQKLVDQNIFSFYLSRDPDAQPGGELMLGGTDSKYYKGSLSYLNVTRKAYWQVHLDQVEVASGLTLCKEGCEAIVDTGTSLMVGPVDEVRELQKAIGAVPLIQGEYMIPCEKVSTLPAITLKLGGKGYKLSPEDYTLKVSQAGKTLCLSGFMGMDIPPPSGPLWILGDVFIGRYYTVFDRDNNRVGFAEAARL
BACE 1 (beta secretase enzyme), sequence (P56817 46-501): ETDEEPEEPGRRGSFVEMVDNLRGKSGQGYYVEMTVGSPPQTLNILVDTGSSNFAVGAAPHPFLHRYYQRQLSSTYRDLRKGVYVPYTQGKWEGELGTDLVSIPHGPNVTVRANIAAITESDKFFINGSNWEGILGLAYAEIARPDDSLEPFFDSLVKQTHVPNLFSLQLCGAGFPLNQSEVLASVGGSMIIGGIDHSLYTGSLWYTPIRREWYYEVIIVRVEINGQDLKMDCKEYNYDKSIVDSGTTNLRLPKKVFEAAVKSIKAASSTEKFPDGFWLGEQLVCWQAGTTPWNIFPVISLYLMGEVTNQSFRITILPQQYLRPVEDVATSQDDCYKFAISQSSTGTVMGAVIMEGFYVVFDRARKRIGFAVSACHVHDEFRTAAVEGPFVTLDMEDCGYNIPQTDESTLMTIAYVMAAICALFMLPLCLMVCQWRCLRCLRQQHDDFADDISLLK

Row | SMILES | IC50 [1] [nM] | IC50 [2] [nM] | inhibition in vivo at 10 mg/kg (Abeta 40; [3]) [%] | inhibition in vivo at 10 mg/kg (Abeta 40; [4]) [%] | IC50 (Cathepsin D) [nM]
1 | NC1=N[C@@]2(CCO1)c1cc(NC(=O)c3ccc(Cl)cn3)ccc1Oc1ncc(Br)cc12 [Example 34, N-((5S)-2′-amino-3-bromo-5′,6′-dihydrospiro[chromeno[2,3-b]pyridine-5,4′-[1,3]oxazin]-7-yl)-5-chloro-2-pyridinecarboxamide] | 13.6 | 7 | 64 | 17 | 245000
2 | NC1=N[C@@]2(CCO1)c1cc(NC(=O)c3ccc(Cl)cn3)ccc1Oc1c2cc(C2=CCCOC2)nc1F [Example 39, N-((5S)-2′-amino-3-(5,6-dihydro-2H-pyran-3-yl)-1-fluoro-5′,6′-dihydrospiro[chromeno[2,3-c]pyridine-5,4′-[1,3]oxazin]-7-yl)-5-chloro-2-pyridinecarboxamide] | 2 | 0.5 | 85 | 80 | > 400000
3 | NC1=N[C@@]2(CCO1)c1cc(NC(=O)c3ccc(Cl)cn3)ccc1Oc1c2cc(C2CC2)nc1F [Example 40, N-((5S)-2′-amino-3-cyclopropyl-1-fluoro-5′,6′-dihydrospiro[chromeno[2,3-c]pyridine-5,4′-[1,3]oxazin]-7-yl)-5-chloro-2-pyridinecarboxamide] | 2.4 | 3.4 | 75 | 58 | 
4 | NC1=N[C@@]2(CCO1)c1cc(NC(=O)c3ccc(Cl)cn3)ccc1Oc1ncc(C3=CCOCC3)cc12 [Example 45, N-((5S)-2′-amino-3-(3,6-dihydro-2H-pyran-4-yl)-5′,6′-dihydrospiro[chromeno[2,3-b]pyridine-5,4′-[1,3]oxazin]-7-yl)-5-chloro-2-pyridinecarboxamide] |  | 0.6 | 27 | 14 | 341000
5 | COc1cnc(C(=O)Nc2ccc3c(c2)[C@@]2(CCOC(N)=N2)c2cc(C4=CCCOC4)nc(F)c2O3)cn1 [Example 51, N-((5S)-2′-amino-3-(5,6-dihydro-2H-pyran-3-yl)-1-fluoro-5′,6′-dihydrospiro[chromeno[2,3-c]pyridine-5,4′-[1,3]oxazin]-7-yl)-5-methoxy-2-pyrazinecarboxamide] | 2.7 | 4.2 | 85 | 76 | > 400000
6 | COc1cnc(C(=O)Nc2ccc3c(c2)[C@@]2(CCOC(N)=N2)c2cc(C4CC4)nc(F)c2O3)cn1 [Example 54, N-((5S)-2′-amino-3-cyclopropyl-1-fluoro-5′,6′-dihydrospiro[chromeno[2,3-c]pyridine-5,4′-[1,3]oxazin]-7-yl)-5-methoxy-2-pyrazinecarboxamide] | 5 | 9.6 | 77 | 65 | 269000
7 | COc1cnc(C(=O)Nc2ccc3c(c2)[C@@]2(CCOC(N)=N2)c2cc(C4=CCCOC4)ncc2O3)cn1 [Example 58, N-((5S)-2′-amino-3-(5,6-dihydro-2H-pyran-3-yl)-5′,6′-dihydrospiro[chromeno[2,3-c]pyridine-5,4′-[1,3]oxazin]-7-yl)-5-methoxy-2-pyrazinecarboxamide] | 9.4 | 1.1 | 55 | 36 | 
8 | NC1=N[C@@]2(CCO1)c1cc(NC(=O)c3ccc(Cl)cn3)ccc1Oc1cnc(C3=CCCOC3)cc12 [Example 59, N-((5S)-2′-amino-3-(5,6-dihydro-2H-pyran-3-yl)-5′,6′-dihydrospiro[chromeno[2,3-c]pyridine-5,4′-[1,3]oxazin]-7-yl)-5-chloro-2-pyridinecarboxamide] | 3 | 0.5 | 57 | 50 | 400000
9 | CC(C)(C)C#Cc1cc2c(cn1)Oc1ccc(NC(=O)c3ccc(Cl)cn3)cc1[C@@]21CCOC(N)=N1 [Example 82, N-((5S)-2′-amino-3-(3,3-dimethyl-1-butyn-1-yl)-5′,6′-dihydrospiro[chromeno[2,3-c]pyridine-5,4′-[1,3]oxazin]-7-yl)-5-chloro-2-pyridinecarboxamide] | 10 | 1.9 | 67 | 42 | 
10 | COc1cnc(C(=O)Nc2ccc3c(c2)[C@@]2(CCOC(N)=N2)c2cc(-c4ccnc(F)c4)cc(F)c2O3)cn1 [Example 95, N-((4S)-2-amino-5′-fluoro-7′-(2-fluoro-4-pyridinyl)-5,6-dihydrospiro[1,3-oxazine-4,9′-xanthen]-2′-yl)-5-methoxy-2-pyrazinecarboxamide] | 6.5 | 5.6 | 54 | 21 | 
11 | NC1=N[C@@]2(CCO1)c1cc(NC(=O)c3ccc(F)cn3)ccc1Oc1c2cc(-c2ccnc(F)c2)nc1F [Example 97, N-((5S)-2′-amino-1-fluoro-3-(2-fluoro-4-pyridinyl)-5′,6′-dihydrospiro[chromeno[2,3-c]pyridine-5,4′-[1,3]oxazin]-7-yl)-5-fluoro-2-pyridinecarboxamide] | 1.2 | 1.1 | 63 | 44 | 
12 | COc1cnc(C(=O)Nc2ccc3c(c2)[C@@]2(CCOC(N)=N2)c2cc(C4=CCCOC4)cc(F)c2O3)cn1 [Example 106, N-((4S)-2-amino-7′-(5,6-dihydro-2H-pyran-3-yl)-5′-fluoro-5,6-dihydrospiro[1,3-oxazine-4,9′-xanthen]-2′-yl)-5-methoxy-2-pyrazinecarboxamide] |  | 1.6 | 43 | 16 | 107000
13 | NC1=N[C@@]2(CCS1)c1cc(NC(=O)c3ccc(F)cn3)ccc1Oc1c2cc(C2=CCOCC2)nc1F [Example 116, N-((5S)-2′-amino-3-(3,6-dihydro-2H-pyran-4-yl)-1-fluoro-5′,6′-dihydrospiro[chromeno[2,3-c]pyridine-5,4′-[1,3]thiazin]-7-yl)-5-fluoro-2-pyridinecarboxamide] | 1 | 0.6 | 73 | 56 | 
14 | NC1=N[C@@]2(CCS1)c1cc(NC(=O)c3ccc(Cl)cn3)ccc1Oc1c2cc(C2=CCOCC2)nc1F [Example 117, N-((5S)-2′-amino-3-(3,6-dihydro-2H-pyran-4-yl)-1-fluoro-5′,6′-dihydrospiro[chromeno[2,3-c]pyridine-5,4′-[1,3]thiazin]-7-yl)-5-chloro-2-pyridinecarboxamide] |  | 0.6 | 80 | 70 | 133000
15 | Cc1cc(Cl)cnc1C(=O)Nc1ccc2c(c1)[C@@]1(CCSC(N)=N1)c1cc(C3=CCOCC3)nc(F)c1O2 [Example 122, N-((5S)-2′-amino-3-(3,6-dihydro-2H-pyran-4-yl)-1-fluoro-5′,6′-dihydrospiro[chromeno[2,3-c]pyridine-5,4′-[1,3]thiazin]-7-yl)-5-chloro-3-methyl-2-pyridinecarboxamide] | 2.9 | 0.8 |  |  | 133000
